The structures appear in SMILES notation.

The data set in a line: gradient 5% acetonitrile 3 min, to 50% in 2 min, to 85% in 15 min, held 3 min, 100 µL/min. To be noted: column: Zorbax Extend-C18 2.1 x 50 mm; eluents: water / acetonitrile, 0.1% formic acid. Put shortly: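 The mobile phases were water and acetonitrile, each with 0.1% formic acid, pumped at 100 μL/min through a Zorbax Extend-C18 column (2.1 × 50 mm, 1.8 μm). Pure standards were injected as mixtures of ~100 molecules and detected by a quadrupole time-of-flight mass spectrometer in positive and negative ionization mode. Retention time came from computationally picked adduct peaks, each inspected by hand.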
`CCC(C(=O)NCCCOC)n1c2ccccc2c2cnn(C)c(=O)c21` (centres undefined) yielded an RP-LC retention time of 749 s.

With `CCCCn1cnc2c(nnn2C)c1=O`, the RP-LC retention time was 621 s.

`Cc1cccc(S(=O)(=O)Nc2cc(-c3cn4ccc(C)cc4n3)ccc2C)c1` came in with an RP-LC retention time of 704 s.

Regarding `COC(=O)c1ccc(NC(=O)C(=O)NCC(O)c2sccc2C)cc1` (centres undefined), the RP-LC retention time was found to be 707 s.

For the compound `Cc1nnc2n1CCC(NC(=O)Cc1cccs1)CC2` (centres undefined), the RP-LC retention time was determined as 550 s.

In turn, `O=C(O)c1ccc(NCCCO)c([N+](=O)[O-])c1` returned an RP-LC retention time of 587 s.

`Cc1nn(C)cc1CN(C)C(=O)CC(c1ccccc1)c1ccccc1` yielded an RP-LC retention time of 765 s.

As for `Cc1nn(CC(=O)NCCc2ccco2)c(=O)c2c(C)n(-c3ccccc3)nc12`, the RP-LC retention time was 774 s.

In the case of `CCOC(=O)c1cccc(Nc2c(-c3cccc(O)c3)nc3cnccn23)c1`, the RP-LC retention time was 748 s.

The compound `O=C(Cn1cnc2c(sc3nc(-c4ccccc4)ccc32)c1=O)Nc1ccc(F)cc1F` came in with an RP-LC retention time of 999 s.

In the case of `O=S(=O)(Nc1cc(F)cc(F)c1)c1ccc(-c2nnc(C3CC3)o2)o1`, the RP-LC retention time stood at 878 s.

With `COc1ccc(Br)cc1CNC(=O)CCC(=O)N1Cc2cccn2-c2ccccc21`, the RP-LC retention time was 993 s.

As for `Cc1nc([C@@H]2CN(C(=O)c3ccc(Cl)s3)C[C@H]2C(N)=O)n[nH]1`, the RP-LC retention time is 608 s.

`CSc1ccc(-c2nc3nc(C)cc(C)n3c2Nc2ccccc2C)cc1`: the RP-LC retention time is 785 s.

As for `O=C(Nc1cnc(N2CCCC2)nc1)c1ccc(Cl)cc1`, the RP-LC retention time amounted to 765 s.

`Cc1ccc(-c2noc(Cn3nc(-c4ccccc4)ccc3=O)n2)cc1` showed an RP-LC retention time of 1080 s.

In turn, `CCOc1ccc(NC(=O)N2CCc3cn(CCOC)c4cccc(c34)C2)cc1` showed an RP-LC retention time of 898 s.

`CCC(Oc1ccc(=O)n(-c2ccc(F)cc2)n1)C(=O)NCCCOC` (centres undefined): the RP-LC retention time is 677 s.

For the compound `Cc1ccc(NC(=O)c2cn(-c3cc(-c4nc(C5CC5)no4)ccn3)cn2)c(C)c1`, the RP-LC retention time came to 1090 s.

For `COc1ccc(-c2nc3ccccn3c2Nc2ccc3c(c2)OCO3)cc1`, the RP-LC retention time turned out to be 633 s.

`O=C(CSc1nnc(-c2cccc(S(=O)(=O)N3CCOCC3)c2)o1)c1ccccc1`: the RP-LC retention time was found to be 847 s.

`Cc1noc(C)c1CN1CCN(C(=O)NCc2ccc(F)cc2)CC1`: the RP-LC retention time was found to be 598 s.

Regarding `O=C(NC(c1ccccc1)c1nnc(N2CCCC2)o1)c1ccc2c(c1)OCO2` (centres undefined), the RP-LC retention time amounted to 777 s.

On to `CC1=C(c2ccc(Cl)cc2)S(=O)(=O)N=C1N1CCCN(C(=O)c2ccccc2)CC1`, for which the RP-LC retention time worked out at 862 s.

For the compound `COc1ccc(-c2nc3cnccn3c2Nc2cccc(C(=O)O)c2)cc1`, the RP-LC retention time turned out to be 894 s.

Regarding `CCOc1ccc(S(=O)(=O)N2CC=C(c3cn(C(C)C)c4ncccc34)CC2)cc1`, the RP-LC retention time amounted to 645 s.

For the compound `Cc1ccc(Cn2c(=O)n(CCNC(=O)C3CCCC3)c3ncccc32)cc1`, the RP-LC retention time came to 836 s.

`CC(NC(=O)c1ccccn1)C(=O)Nc1nc2ccccc2[nH]1` (centres undefined): the RP-LC retention time is 608 s.

In turn, `CNC(=O)c1cncc(OC(C)C)c1` gave an RP-LC retention time of 610 s.

On to `CCn1c(=O)c2ccccc2n(Cc2nc(-c3ccc(C)c(C)c3)no2)c1=O`, for which the RP-LC retention time turned out to be 1100 s.

Compound `O=C(CCC1CCCN(C(=O)Nc2ccc(Cl)cc2)C1)NCc1ccccc1` (centres undefined) gave an RP-LC retention time of 884 s.

For the compound `CCN1CCn2cc(S(=O)(=O)Nc3ccc(F)cc3)cc2C1=O`, the RP-LC retention time stood at 696 s.

In turn, `O=C(NCc1cscn1)C1CCN(S(=O)(=O)c2ccc(Cl)s2)CC1` displayed an RP-LC retention time of 739 s.

Turning to `COC(=O)c1cn(Cc2ccc(OC)c(F)c2)nc1S(=O)(=O)N1CCCCC1`, the RP-LC retention time was 945 s.

Compound `O=C(Cn1cnc2ccccc2c1=O)N1CCCC(c2nnc(-c3ccccc3F)s2)C1` (centres undefined) had an RP-LC retention time of 730 s.

Regarding `Cc1ccc(CN2CCN(CC(=O)Nc3ccncc3)C(=O)C2=O)cc1`, the RP-LC retention time came out at 588 s.

`COc1ccc(C(=O)Nc2ccc(-c3cn4ccc(C)nc4n3)cc2)cc1OC` registered an RP-LC retention time of 604 s.

Compound `O=S(=O)(Cc1ccccc1)N1CCCC(c2nn[nH]n2)C1` (centres undefined) had an RP-LC retention time of 706 s.

Take `CN(C)S(=O)(=O)c1ccc(C(=O)Nc2nc(-c3coc4ccccc34)cs2)cc1`: the RP-LC retention time turned out to be 1030 s.

In the case of `COc1ccc(C(C)NC(=O)Cn2nc3cc(-c4ccccc4)nc(C)n3c2=O)cc1` (centres undefined), the RP-LC retention time came out at 908 s.

Consider `Cc1cc(C)c(NC(=O)Cn2cnc3nc(N4CCC(C(=O)NC5CC5)CC4)sc3c2=O)c(C)c1`, for which the RP-LC retention time was 754 s.

As to `CCOC(=O)c1noc2ncnc(Nc3ccc(CC)cc3)c12`, the RP-LC retention time came to 1060 s.

Consider `N#Cc1ccc(S(=O)(=O)N2CCCN(S(=O)(=O)c3ccccc3)CCC(=O)NCC2)cc1`, for which the RP-LC retention time was 797 s.

The compound `O=C1CC(c2nc(-c3ccccc3F)no2)CN1c1cccc(Cl)c1` (centres undefined) returned an RP-LC retention time of 977 s.

For the compound `CCCc1cc(NCCN(C)C)n2ncc(-c3ccccc3)c2n1`, the RP-LC retention time is 660 s.

As to `O=c1c2sccc2n(Cc2nc(-c3ccc(F)c(Cl)c3)no2)c(=O)n1Cc1ccccc1`, the RP-LC retention time is 1210 s.

With `C[C@H](NC(=O)[C@@H]1CCCN1C(=O)[C@@H]1CCCN1C(=O)[C@@H](O)[C@H](N)Cc1ccccc1)C(N)=O`, the RP-LC retention time stood at 552 s.

Compound `O=C(CCc1c(-c2ccc(Cl)cc2)nc2ccccn12)NCc1ccco1` came in with an RP-LC retention time of 655 s.

The compound `COC(=O)c1ccccc1NC(=O)N1CCC(C(=O)NCc2csc(-c3ccccc3)n2)CC1` had an RP-LC retention time of 902 s.

Regarding `COc1ccc(CN2C(=O)COC[C@H]2C(=O)NCc2ccc(Cl)cc2)c(OC)c1`, the RP-LC retention time worked out at 805 s.

`Cc1ccc(CNC(=O)C2(C)CN(S(C)(=O)=O)CC(=O)N2c2cc(C)ccc2C)cc1` (centres undefined) registered an RP-LC retention time of 898 s.

With `COc1ccc(CCc2nc3nccc(-c4ccc(F)cc4OC)n3n2)cc1`, the RP-LC retention time is 916 s.

`CCN1CCn2c(nc3cc(C(=O)NCc4ccc(OC(C)C)cc4)ccc32)C1=O` displayed an RP-LC retention time of 726 s.

On to `O=C(c1ccco1)N1CCCn2cc(-c3ccccc3F)nc21`, for which the RP-LC retention time was found to be 639 s.

`Cc1ccc(C(=O)NCC2CC(=O)N(c3ccc(Cl)cc3)C2)cc1[N+](=O)[O-]` (centres undefined): the RP-LC retention time came to 822 s.

On to `Cc1nc(C)c(C(=O)N2CCCC2c2nc(CCOCC3CC3)no2)s1` (centres undefined), for which the RP-LC retention time worked out at 732 s.

In turn, `Cc1ccc(-c2noc(-c3nnn4c3COC(c3ccc(Cl)cc3)C4)n2)cc1` (centres undefined) had an RP-LC retention time of 1310 s.

Turning to `CC(C)N1CCN(Cc2ccc(C(=O)N3CCN(C4CCCCC4)CC3)cc2)C(=O)C1=O`, the RP-LC retention time was 839 s.

Turning to `O=C(CNC(=O)c1ccccc1)NC(C(=O)N1CCCc2ccccc21)c1ccccc1` (centres undefined), the RP-LC retention time is 816 s.

(Values after the METLIN SMRT retention time set (Domingo-Almenara et al. 2019).)
